We go through 22 compounds from patent publication US9637496B2, “Substituted 7-azabicycles and their use as orexin receptor modulators” (priority 2013, dated 2017).

pKi: −log10 of the molar value. Like-named read-outs stand apart in the source and are kept apart here.

Broadly, the pKi is −log10 of the Ki, conventionally taken in molar units.

The target of test [1] is human orexin 2 receptor (Homo sapiens (Human), UniProt O43614). The test is described as follows: Human orexin 2 receptor radioligand binding ([3H]-EMPA competition, HEK293 membranes). The conditions noted are these: read-out: hOX2 Ki.
Sequence of human orexin 2 receptor (O43614 whole entry): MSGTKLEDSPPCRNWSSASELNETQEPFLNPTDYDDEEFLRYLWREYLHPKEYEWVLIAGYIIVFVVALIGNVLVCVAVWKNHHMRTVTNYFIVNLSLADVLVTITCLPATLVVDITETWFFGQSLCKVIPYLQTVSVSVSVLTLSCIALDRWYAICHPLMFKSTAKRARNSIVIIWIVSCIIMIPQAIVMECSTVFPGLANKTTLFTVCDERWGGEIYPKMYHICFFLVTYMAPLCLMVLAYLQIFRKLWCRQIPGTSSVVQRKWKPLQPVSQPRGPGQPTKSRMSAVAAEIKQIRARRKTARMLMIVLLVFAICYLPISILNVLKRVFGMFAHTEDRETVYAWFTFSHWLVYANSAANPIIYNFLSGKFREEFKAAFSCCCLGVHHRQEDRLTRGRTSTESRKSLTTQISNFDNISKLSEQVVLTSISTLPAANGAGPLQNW
Test [2] addresses human orexin 1 receptor (Homo sapiens (Human), UniProt O43613). Description: Human orexin 1 receptor radioligand binding (competitive binding, CHO membranes).
The target in test [3] is rat orexin 1 receptor (Rattus norvegicus (Rat), UniProt P56718). Description: Rat orexin 1 receptor radioligand binding (competitive binding, HEK293 membranes).
Sequence of rat orexin 1 receptor (P56718 whole entry): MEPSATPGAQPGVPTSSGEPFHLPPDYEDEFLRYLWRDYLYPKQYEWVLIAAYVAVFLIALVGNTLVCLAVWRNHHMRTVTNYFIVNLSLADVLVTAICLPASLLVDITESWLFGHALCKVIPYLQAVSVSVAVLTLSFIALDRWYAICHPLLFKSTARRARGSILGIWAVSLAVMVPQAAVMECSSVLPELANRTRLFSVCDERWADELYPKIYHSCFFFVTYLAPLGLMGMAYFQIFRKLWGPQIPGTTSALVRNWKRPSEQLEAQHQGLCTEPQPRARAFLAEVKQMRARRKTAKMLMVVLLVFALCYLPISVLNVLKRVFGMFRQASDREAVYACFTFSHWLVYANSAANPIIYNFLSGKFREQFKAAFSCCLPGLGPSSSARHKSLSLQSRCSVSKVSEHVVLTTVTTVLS
Where [4] appears, read: human orexin 2 receptor, Table 2, averages from between 2-20 runs.
[5] abbreviates: human orexin 1 receptor, Table 2, averages of 2-20 runs, read-out: hOX1 Ki.
[6] abbreviates: human orexin 2 receptor, Table 2, averages of 2-20 runs.
Setting [7] is: Table 2, further testing, averages from 2-20 runs.
The mark [8] stands for this setting: Table 2, further testing, averages from 2-20 runs, read-out: rOX1 Ki.
Setting [9] is: rat orexin 1 receptor, Table 2, averages from between 2-20 runs, read-out: rOX1 Ki.

Sequence of human orexin 1 receptor (O43613 whole entry): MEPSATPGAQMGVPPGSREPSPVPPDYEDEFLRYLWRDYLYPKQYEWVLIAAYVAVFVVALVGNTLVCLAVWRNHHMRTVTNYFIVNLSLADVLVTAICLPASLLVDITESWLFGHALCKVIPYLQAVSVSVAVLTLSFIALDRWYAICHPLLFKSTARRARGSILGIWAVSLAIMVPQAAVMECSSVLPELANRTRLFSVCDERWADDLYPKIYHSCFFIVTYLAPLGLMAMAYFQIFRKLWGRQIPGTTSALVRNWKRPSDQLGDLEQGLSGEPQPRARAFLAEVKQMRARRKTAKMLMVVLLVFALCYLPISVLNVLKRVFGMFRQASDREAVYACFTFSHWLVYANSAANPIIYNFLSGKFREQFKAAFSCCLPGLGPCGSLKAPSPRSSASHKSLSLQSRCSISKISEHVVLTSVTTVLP

Take `O=C(c1cccc(F)c1-c1ccccn1)N1[C@@H]2CC[C@H]1[C@H](Nc1ccc(C(F)(F)F)cn1)C2` [Example 320, (3-fluoro-2-(pyridin-2-yl)phenyl)((1S,2R,4R)-2-((5-(trifluoromethyl)pyridin-2-yl)amino)-7-azabicyclo[2.2.1]heptan-7-yl)methanone]: the negative-log Ki (pKi) in test [1] (setting [4]) is 6.59; in test [2] (read-out: hOX1 Ki) it was 7.85; in test [3] (read-out: rOX1 Ki), 7.43.

For `Cc1ccc(-c2ncccn2)c(C(=O)N2[C@@H]3CC[C@H]2[C@H](Nc2ccc(C(F)(F)F)cn2)C3)n1` [Example 379, (6-methyl-3-(pyrimidin-2-yl)pyridin-2-yl)((1S,2R,4R)-2-((5-(trifluoromethyl)pyridin-2-yl)amino)-7-azabicyclo[2.2.1]heptan-7-yl)methanone], the pKi in test [2] (read-out: hOX1 Ki) was 7.62; in test [3] (read-out: rOX1 Ki), 7.60. Consider `O=C(c1cccc(F)c1-c1ncccn1)N1[C@H]2CC[C@@H]1[C@@H](Nc1cnc(C(F)(F)F)cn1)C2` [Example 297, (3-fluoro-2-(pyrimidin-2-yl)phenyl)((1R,2S,4S)-2-((5-(trifluoromethyl)pyrazin-2-yl)amino)-7-azabicyclo[2.2.1]heptan-7-yl)methanone], for which the pKi in test [2] (human orexin 1 receptor, Table 2, averages from between 2-20 runs, read-out: hOX1 Ki) was below 5.00; in test [3], 6.40. In test [2], `CCOc1ncc2ccccc2c1C(=O)N1C2CCC1C(COc1ccccn1)C2` (racemic) [Example 83, (±)-(3-ethoxyisoquinolin-4-yl)(2-((pyridin-2-yloxy)methyl)-7-azabicyclo[2.2.1]heptan-7-yl)methanone] had a pKi of 7.89. On the same count and under the same terms, in the case of `O=C(c1cccc(F)c1-c1ncccn1)N1C2CCC1C(COc1ccc(F)cn1)C2` (racemic) [Example 124, (±)-(3-fluoro-2-(pyrimidin-2-yl)phenyl)(-2-(((5-fluoropyridin-2-yl)oxy)methyl)-7-azabicyclo[2.2.1]heptan-7-yl)methanone] it was 7.12.

Consider `Cc1cc(C)nc(OCC2CC3CCC2N3C(=O)c2ccccc2-c2cccs2)n1` (racemic) [Example 46, (±)-(2-(((4,6-dimethylpyrimidin-2-yl)oxy)methyl)-7-azabicyclo[2.2.1]heptan-7-yl)(2-(thiophen-2-yl)phenyl)methanone], for which, in test [2] (setting [5]), the negative logarithm of the Ki (pKi) is 6.95. With `O=C(c1cccc(F)c1-n1nccn1)N1C2CCC1C(COc1nccc(C(F)(F)F)n1)C2` (racemic) [Example 134, (±)-(3-fluoro-2-(2H-1,2,3-triazol-2-yl)phenyl)(2-(((4-(trifluoromethyl)pyrimidin-2-yl)oxy)methyl)-7-azabicyclo[2.2.1]heptan-7-yl)methanone], the results for the pKi in test [2] and in test [3] were 6.16 and 5.82, respectively.

With `Cc1coc(-c2ccc(C)nc2C(=O)N2[C@@H]3CC[C@H]2[C@H](COc2ncc(F)cn2)C3)n1` [Example 179, ((1S,2R,4R)-2-(((5-fluoropyrimidin-2-yl)oxy)methyl)-7-azabicyclo[2.2.1]heptan-7-yl)(6-methyl-3-(4-methyloxazol-2-yl)pyridin-2-yl)methanone], the pKi was 5.27 in test [1] (setting [6]) and 5.62 in test [3] (rat orexin 1 receptor, Table 2, averages of 2-20 runs, read-out: rOX1 Ki). Regarding `O=C(c1cccc(F)c1-n1nccn1)N1C2CCC1C(Oc1cnc(C(F)(F)F)cn1)C2` (racemic) [Example 445, (R/S)-(3-fluoro-2-(2H-1,2,3-triazol-2-yl)phenyl)(2-((5-(trifluoromethyl)pyrazin-2-yl)oxy)-7-azabicyclo[2.2.1]heptan-7-yl)methanone], the results for the negative-log Ki (pKi) in test [1] (setting [7]) and in test [3] (setting [8]) were below 5.00 and 6.34, respectively. Regarding `Cc1cnc(-n2nccn2)c(C(=O)N2C3CCC2C(Oc2ccc(C(F)(F)F)cn2)C3)c1` (racemic) [Example 428], the pKi in test [1] (setting [4]) was below 5.00; in test [3], 5.96. Turning to `Cc1cnc(-c2ncccn2)c(C(=O)N2[C@@H]3CC[C@H]2[C@H](Nc2ncc(C(F)(F)F)cc2F)C3)c1` [Example 455, ((1S,2R,4R)-2-((3-fluoro-5-(trifluoromethyl)pyridin-2-yl)amino)-7-azabicyclo[2.2.1]heptan-7-yl)(5-methyl-2-(pyrimidin-2-yl)pyridin-3-yl)methanone], the negative-log Ki (pKi) was below 5.00 in test [1] (setting [7]) and 6.33 in test [3] (setting [8]). Turning to `O=C(c1c(F)cccc1-n1nccn1)N1C2CCC1C(Oc1ccc(C(F)(F)F)nc1)C2` (racemic) [Example 439], the pKi in test [1] (setting [4]) and in test [3] (setting [9]) was below 5.00 throughout. `O=C(c1cccc(F)c1-n1nccn1)N1C2CCC1C(Oc1cc(Br)cnc1Cl)C2` (racemic) [Example 443]: the negative-log Ki (pKi) in test [1] (setting [4]) and in test [3] (setting [9]) was below 5.00 throughout. For `O=C(c1c(F)cccc1-c1ncccn1)N1C2CCC1C(COc1ccc(F)cn1)C2` (racemic) [Example 31, (±)-(2-fluoro-6-(pyrimidin-2-yl)phenyl)(2-(((5-fluoropyridin-2-yl)oxy)methyl)-7-azabicyclo[2.2.1]heptan-7-yl)methanone], in test [2], the pKi was 7.37. For the compound `Cc1cccc(C(=O)N2C3CCC2C(Oc2ccc(C(F)(F)F)nc2)C3)c1-n1nccn1` (racemic) [Example 437], the pKi in test [1] (setting [4]) and in test [3] was below 5.00 each time. Regarding `O=C(c1cccc(F)c1-n1nccn1)N1C2CCC1C(Oc1ccc(C(F)(F)F)nc1)C2` (racemic) [Example 438], the pKi in test [1] (setting [4]) and in test [3] (setting [9]) was below 5.00 each time. For `O=C(c1cc(F)ccc1-n1nccn1)N1C2CCC1C(COc1ccc(F)cn1)C2` (racemic) [Example 30, (±)-(5-fluoro-2-(2H-1,2,3-triazol-2-yl)phenyl)(2-(((5-fluoropyridin-2-yl)oxy)methyl)-7-azabicyclo[2.2.1]heptan-7-yl)methanone], the values for the pKi in test [1] (setting [6]) and in test [2] were 6.80 and 7.22, respectively. Take `O=C(c1cccc(F)c1-c1ncccn1)N1C2CCC1C(Oc1cnc(C(F)(F)F)cn1)C2` (racemic) [Example 447, (R/S)-(3-fluoro-2-(pyrimidin-2-yl)phenyl)(2-((5-(trifluoromethyl)pyrazin-2-yl)oxy)-7-azabicyclo[2.2.1]heptan-7-yl)methanone]: the pKi is below 5.00 in test [1] (setting [7]) and 6.53 in test [3] (setting [8]). As for `O=C(c1cccnc1-n1nccn1)N1[C@@H]2CC[C@H]1[C@H](Nc1cnc(C(F)(F)F)cn1)C2` [Example 402, (2-(2H-1,2,3-triazol-2-yl)pyridin-3-yl)((1S,2R,4R)-2-((5-(trifluoromethyl)pyrazin-2-yl)amino)-7-azabicyclo[2.2.1]heptan-7-yl)methanone], the pKi in test [1] (setting [4]) was below 5.00; in test [3] (setting [9]), 6.24.

Consider `Cc1cnc(-c2ncccn2)c(C(=O)N2[C@@H]3CC[C@H]2[C@H](Nc2ccc(C(F)(F)F)cn2)C3)c1` [Example 378, (5-methyl-2-(pyrimidin-2-yl)pyridin-3-yl)((1S,2R,4R)-2-((5-(trifluoromethyl)pyridin-2-yl)amino)-7-azabicyclo[2.2.1]heptan-7-yl)methanone], for which the negative logarithm of the Ki (pKi) was below 5.00 in test [1] (setting [4]) and 6.51 in test [3] (setting [9]).

Regarding `O=C(c1cccc(F)c1-c1ncccn1)N1[C@@H]2CC[C@H]1[C@H](Nc1nnc(C(F)(F)F)s1)C2` [Example 419, (3-fluoro-2-(pyrimidin-2-yl)phenyl)((1S,2R,4R)-2-((5-(trifluoromethyl)-1,3,4-thiadiazol-2-yl)amino)-7-azabicyclo[2.2.1]heptan-7-yl)methanone], the pKi was 5.13 in test [1] (setting [4]) and 6.07 in test [3] (setting [9]). Take `O=C(c1ccccc1-n1cccn1)N1C2CCC1C(COc1ccc(F)cn1)C2` (racemic) [Example 26, (±)-2-(1H-pyrazol-1-yl)phenyl)(2-(((5-fluoropyridin-2-yl)oxy)methyl)-7-azabicyclo[2.2.1]heptan-7-yl)methanone]: in test [2] (setting [5]), the negative logarithm of the Ki (pKi) was 6.87.
